{"source": "patent US12630536B2", "about": "“Cyanotriazine derivative, preparation method therefor, and application thereof” (Chengdu Fanxi Biopharma Co., LTD., priority 2020, dated 2026)", "key": {"[1]": {"test_system": "golden hamsters fed with high-fat feedstuffs (hyperlipidemia model)", "test": "In-vivo pharmacodynamic test, high-fat feed hyperlipidemia model", "details": "oral once per day, 4 weeks", "method": "Administration mode: oral administration was carried out once per day with a time interval of 24 hours for 4 consecutive weeks. During the experiment, the animals were weighed twice per week, and a remaining amount and an adding amount of the feedstuffs were recorded before each blood sampling detection for calculating a food intake of each group of animals during administration.\nThe food utilization rate represents a weight gain in gram of an animal taking per 100 g of feedstuffs, so that food utilization rate=weight gain (g)/food intake (100 g)×100%."}, "[2]": {"test_system": "TR alpha-UAS-bla HEK 293T Cells", "test": "TR cell-based agonist detection, β-lactamase reporter (LiveBLAzer FRET B/G), TR alpha", "details": "Homo sapiens", "method": "(§1) A method for testing a THR-α/β activation activity of a compound by an in-vitro cell level was as follows.\n(§2) Compounds were transferred to a 384-well plate by an ECHO liquid workstation, and each compound was diluted by 3 times with 10 gradient concentrations, which was in triplicate. 1.5×10^4 DMEM-cultured cells (TR beta-UAS-bla HEK 293T Cells) or 1.0×10^4 TR alpha-UAS-bla HEK 293T Cells were placed in the 384-well plate. HEK 293T-TR beta was incubated in an incubator for 16 hours, and HEK 293T-TR alpha was incubated in an incubator for 24 hours. A LiveBLAzer™-FRET B/G (CCF4-AM) substrate was added into the cell plate to detect expression of β-lactamase in cells, and under excitation of 409 nm, a product produced fluorescence with a wavelength of 447 nm. When the β-lactamase was not expressed, under excitation of 409 nm, fluorescence with a wavelength of 520 nm was directly produced through FRET. Combination between the compound and the protein was determined by detecting a ratio of the two kinds of fluorescence (blue/green, 460 nm/530 nm), thus calculating EC50 of the compound. […] Calculation of a factor Z (greater than 0.5) would be used for monitoring a stability of each experiment."}, "[3]": {"test_system": "TR beta-UAS-bla HEK 293T Cells", "test": "TR cell-based agonist detection, β-lactamase reporter (LiveBLAzer FRET B/G), TR beta", "method": "as §1, §2"}}, "data": [{"smiles": "CC(C)c1cc(Oc2c(Cl)cc(-n3nc(C#N)c(=O)[nH]c3=O)cc2Cl)n[nH]c1=O", "note": "[MGL3196, reference compound]", "values": [{"measurement": "food utilization rate (weight gain (g)/food intake (100 g)×100%)", "setting": "[1]", "value": "increased to some extent"}, {"measurement": "Emax", "setting": "[2]; HEK-293T, 24 h, TR_cell-based agonist, TR_α, read-out: Maximum activity ratio", "value": 134, "unit": "%"}, {"measurement": "EC50", "setting": "[2]; Detection of TR_cell-based agonist, HEK 293T-TR alpha, 24 hours, read-out: TR_α_EC50", "value": 2770, "unit": "nM"}, {"measurement": "Emax", "setting": "[3]; Homo sapiens, HEK-293T, 16 h, TR_cell-based agonist, TR_β, read-out: Maximum activity ratio (A460/A530)", "value": 37.7, "unit": "%"}, {"measurement": "EC50", "setting": "[3]; Homo sapiens, Detection of TR_cell-based agonist, HEK 293T-TR beta, 16 hours, read-out: TR_β_EC50", "value": 1050, "unit": "nM"}, {"measurement": "α/β", "setting": "[3]; TR_cell-based agonist, ratio TR_α EC50 / TR_β EC50", "value": 2.62}]}]}
